Assay results from patent US20240051921A1, “CRYSTALLINE FORM OF A PHENOLIC TRPV1 AGONIST PRODRUG” (Concentric Analgesics, Inc., priority 2020, published 2024).

Assay: Dynamic vapor sorption (DVS) test, form stability as a function of relative humidity
Format: physicochemical
Conditions: 25° C.
Method: DVS test was performed using an SMS (Surface Measurement Systems) DVS Intrinsic instrument. The relative humidity at 25° C. were calibrated against deliquescence point of LiCl, Mg(NO3)2 and KCl. The following instrument parameters were used:
DVS test was performed on crystalline Compound 1, Form 1, to investigate its form stability as a function of relative humidity. The DVS test was first conducted at 25° C. with humidity cycled between 0% RH-95% RH-0% RH.

CNCC1CCCCN1C(=O)Oc1ccc(CNC(=O)CCCC/C=C/C(C)C)cc1OC.Cl (stereo not drawn) [Compound 1, Form 1, (E)-2-methoxy-4-((8-methylnon-6-enamido)methyl)phenyl 2-((methylamino)methyl)piperidine-1-carboxylate hydrochloride]
crystal form change before and after DVS test (XRPD) (0% RH-95% RH-0% RH, checked by XRPD): no form change occurred | moisture content (DVS) (at 95% RH, cycle 0% RH-95% RH-0% RH): 16.5 % wt | moisture content, relative stable platform (DVS) (between 20% RH and 70% RH): ~3.5 % wt
